ChEMBL document CHEMBL1150798, “Combined therapies in a murine model of blastoschizomycosis” (2007)
≈ marks a conversion by molar mass, not a printed value. Starred links: 1 amine or outer side, 2 acyl side, 3 side chain; linkers in the order of their positions; H or OH if unused. Positions of bridges follow the written chain, without caps; N, C: chain ends. Non-standard residues stand in square brackets, D forms with d. Residues, ends and D or L forms follow the SMILES beside them. *: point of attachment. hTyr(3S-OH,4S-OH,3'-OSO3H) = N[C@H](C(=O)O)[C@H](O)[C@@H](O)c1ccc(O)c(OS(=O)(=O)O)c1; Orn(4R-OH,5R-OH) = O=C([C@H](C[C@@H](O)[C@@H](O)N[*:3])N[*:1])[*:2]; Pro(3S-OH,4S-Me) = C[C@H]1CN[C@H](C(=O)O)[C@H]1O; X1 = CCCCCOc1ccc(-c2cc(-c3ccc(C(=O)*)cc3)no2)cc1; Gln(3R-OH) = NC(=O)C[C@@H](O)[C@H](N)C(=O)O; Hyp = O=C(O)[C@@H]1C[C@@H](O)CN1

Assays:
Format in all cases: functional
Magnusiomyces capitatus [1] = assay: Antimicrobial activity against Blastoschizomyces capitatus IHEM 16105 isolate infected OF1 mouse blastoschizomycosis model assessed as spleen microbial count per gram of tissue at 10 mg/kg/day, sc for 6 days administered 1 hr before microbial challenge; details: route subcutaneous
Magnusiomyces capitatus [2] = assay: Antimicrobial activity against Blastoschizomyces capitatus IHEM 16105 isolate infected OF1 mouse blastoschizomycosis model assessed as liver microbial count per gram of tissue at 10 mg/kg/day, sc for 6 days administered 1 hr before microbial challenge; details: route subcutaneous
Magnusiomyces capitatus [3] = assay: Antimicrobial activity against Blastoschizomyces capitatus IHEM 5666 isolate infected OF1 mouse blastoschizomycosis model assessed as kidney microbial count at 10 mg/kg/day, sc for 6 days administered 1 hr before microbial challenge; details: route subcutaneous
Magnusiomyces capitatus [4] = assay: Antimicrobial activity against Blastoschizomyces capitatus IHEM 5666 isolate by microdilution method
Magnusiomyces capitatus [5] = assay: Antimicrobial activity against Blastoschizomyces capitatus IHEM 5666 isolate infected OF1 mouse blastoschizomycosis model assessed as mean survival time at 10 mg/kg/day, sc for 6 days administered 1 hr before microbial challenge; details: route subcutaneous
Magnusiomyces capitatus [6] = assay: Antimicrobial activity against Blastoschizomyces capitatus IHEM 5666 isolate infected OF1 mouse blastoschizomycosis model assessed as spleen microbial count at 10 mg/kg/day, sc for 6 days administered 1 hr before microbial challenge; details: route subcutaneous
Magnusiomyces capitatus [7] = assay: Antimicrobial activity against Blastoschizomyces capitatus IHEM 5666 isolate infected OF1 mouse blastoschizomycosis model assessed as liver microbial count at 10 mg/kg/day, sc for 6 days administered 1 hr before microbial challenge; details: route subcutaneous
Magnusiomyces capitatus [8] = assay: Antimicrobial activity against Blastoschizomyces capitatus IHEM 16105 isolate infected OF1 mouse blastoschizomycosis model assessed as kidney microbial count per gram of tissue at 10 mg/kg/day, sc for 6 days administered 1 hr before microbial challenge; details: route subcutaneous
Magnusiomyces capitatus [9] = assay: Antimicrobial activity against Blastoschizomyces capitatus IHEM 16105 isolate infected OF1 mouse blastoschizomycosis model assessed as mean survival time at 10 mg/kg/day, sc for 6 days administered 1 hr before microbial challenge; details: route subcutaneous
Magnusiomyces capitatus [10] = assay: Antimicrobial activity against Blastoschizomyces capitatus IHEM 16105 isolate by microdilution method
Magnusiomyces capitatus [11] = assay: Antimicrobial activity against Blastoschizomyces capitatus IHEM 5666 isolate infected OF1 mouse blastoschizomycosis model assessed as spleen microbial count per gram of tissue at 80 mg/kg/day, po for 6 days administered 1 hr before microbial challenge
Magnusiomyces capitatus [12] = assay: Antimicrobial activity against Blastoschizomyces capitatus IHEM 5666 isolate infected OF1 mouse blastoschizomycosis model assessed as liver microbial count per gram of tissue at 80 mg/kg/day, po for 6 days administered 1 hr before microbial challenge
Magnusiomyces capitatus [13] = assay: Antimicrobial activity against Blastoschizomyces capitatus IHEM 16105 isolate infected OF1 mouse blastoschizomycosis model assessed as spleen microbial count per gram of tissue at 80 mg/kg/day, po for 6 days administered 1 hr before microbial challenge
Magnusiomyces capitatus [14] = assay: Antimicrobial activity against Blastoschizomyces capitatus IHEM 16105 isolate infected OF1 mouse blastoschizomycosis model assessed as kidney microbial count per gram of tissue at 80 mg/kg/day, po for 6 days administered 1 hr before microbial challenge
Magnusiomyces capitatus [15] = assay: Antimicrobial activity against Blastoschizomyces capitatus IHEM 5666 isolate infected OF1 mouse blastoschizomycosis model assessed as mean survival time at 80 mg/kg/day, po for 6 days administered 1 hr before microbial challenge
Magnusiomyces capitatus [16] = assay: Antimicrobial activity against Blastoschizomyces capitatus IHEM 5666 isolate infected OF1 mouse blastoschizomycosis model assessed as kidney microbial count per gram of tissue at 80 mg/kg/day, po for 6 days administered 1 hr before microbial challenge
Magnusiomyces capitatus [17] = assay: Antimicrobial activity against Blastoschizomyces capitatus IHEM 16105 isolate infected OF1 mouse blastoschizomycosis model assessed as liver microbial count per gram of tissue at 80 mg/kg/day, po for 6 days administered 1 hr before microbial challenge
Magnusiomyces capitatus [18] = assay: Antimicrobial activity against Blastoschizomyces capitatus IHEM 16105 isolate infected OF1 mouse blastoschizomycosis model assessed as mean survival time at 80 mg/kg/day, po for 6 days administered 1 hr before microbial challenge
Magnusiomyces capitatus [19] = assay: Antimicrobial activity against Blastoschizomyces capitatus IHEM 16105 isolate infected OF1 mouse blastoschizomycosis model assessed as spleen microbial count per gram of tissue at 40 mg/kg/day, po for 6 days administered 1 hr before microbial challenge
Magnusiomyces capitatus [20] = assay: Antimicrobial activity against Blastoschizomyces capitatus IHEM 5666 isolate infected OF1 mouse blastoschizomycosis model assessed as spleen microbial count at 40 mg/kg/day, po for 6 days administered 1 hr before microbial challenge
Magnusiomyces capitatus [21] = assay: Antimicrobial activity against Blastoschizomyces capitatus IHEM 16105 isolate infected OF1 mouse blastoschizomycosis model assessed as kidney microbial count per gram of tissue at 40 mg/kg/day, po for 6 days administered 1 hr before microbial challenge
Magnusiomyces capitatus [22] = assay: Antimicrobial activity against Blastoschizomyces capitatus IHEM 5666 isolate infected OF1 mouse blastoschizomycosis model assessed as kidney microbial count at 40 mg/kg/day, po for 6 days administered 1 hr before microbial challenge
Magnusiomyces capitatus [23] = assay: Antimicrobial activity against Blastoschizomyces capitatus IHEM 5666 isolate infected OF1 mouse blastoschizomycosis model assessed as liver microbial count at 40 mg/kg/day, po for 6 days administered 1 hr before microbial challenge
Magnusiomyces capitatus [24] = assay: Antimicrobial activity against Blastoschizomyces capitatus IHEM 16105 isolate infected OF1 mouse blastoschizomycosis model assessed as liver microbial count per gram of tissue at 40 mg/kg/day, po for 6 days administered 1 hr before microbial challenge
Magnusiomyces capitatus [25] = assay: Antimicrobial activity against Blastoschizomyces capitatus IHEM 5666 isolate infected OF1 mouse blastoschizomycosis model assessed as mean survival time at 40 mg/kg/day, po for 6 days administered 1 hr before microbial challenge
Magnusiomyces capitatus [26] = assay: Antimicrobial activity against Blastoschizomyces capitatus IHEM 16105 isolate infected OF1 mouse blastoschizomycosis model assessed as mean survival time at 40 mg/kg/day, po for 6 days administered 1 hr before microbial challenge
Magnusiomyces capitatus [27] = assay: Antimicrobial activity against Blastoschizomyces capitatus IHEM 5666 isolate infected OF1 mouse blastoschizomycosis model assessed as liver microbial count at 60 mg/kg/day, po for 6 days administered 1 hr before microbial challenge
Magnusiomyces capitatus [28] = assay: Antimicrobial activity against Blastoschizomyces capitatus IHEM 16105 isolate infected OF1 mouse blastoschizomycosis model assessed as liver microbial count per gram of tissue at 60 mg/kg/day, po for 6 days administered 1 hr before microbial challenge
Magnusiomyces capitatus [29] = assay: Antimicrobial activity against Blastoschizomyces capitatus IHEM 5666 isolate infected OF1 mouse blastoschizomycosis model assessed as kidney microbial count at 60 mg/kg/day, po for 6 days administered 1 hr before microbial challenge
Magnusiomyces capitatus [30] = assay: Antimicrobial activity against Blastoschizomyces capitatus IHEM 16105 isolate infected OF1 mouse blastoschizomycosis model assessed as spleen microbial count per gram of tissue at 60 mg/kg/day, po for 6 days administered 1 hr before microbial challenge
Magnusiomyces capitatus [31] = assay: Antimicrobial activity against Blastoschizomyces capitatus IHEM 5666 isolate infected OF1 mouse blastoschizomycosis model assessed as spleen microbial count at 60 mg/kg/day, po for 6 days administered 1 hr before microbial challenge
Magnusiomyces capitatus [32] = assay: Antimicrobial activity against Blastoschizomyces capitatus IHEM 5666 isolate infected OF1 mouse blastoschizomycosis model assessed as mean survival time at 60 mg/kg/day, po for 6 days administered 1 hr before microbial challenge
Magnusiomyces capitatus [33] = assay: Antimicrobial activity against Blastoschizomyces capitatus IHEM 16105 isolate infected OF1 mouse blastoschizomycosis model assessed as kidney microbial count per gram of tissue at 60 mg/kg/day, po for 6 days administered 1 hr before microbial challenge
Magnusiomyces capitatus [34] = assay: Antimicrobial activity against Blastoschizomyces capitatus IHEM 16105 isolate infected OF1 mouse blastoschizomycosis model assessed as mean survival time at 60 mg/kg/day, po for 6 days administered 1 hr before microbial challenge
Magnusiomyces capitatus [35] = assay: Antimicrobial activity against Blastoschizomyces capitatus IHEM 16105 isolate infected OF1 mouse blastoschizomycosis model assessed as spleen microbial count per gram of tissue at 1 mg/kg/day, ip for 6 days administered 1 hr before microbial challenge; details: route intraperitoneal
Magnusiomyces capitatus [36] = assay: Antimicrobial activity against Blastoschizomyces capitatus IHEM 5666 isolate infected OF1 mouse blastoschizomycosis model assessed as mean survival time at 1 mg/kg/day, ip for 6 days administered 1 hr before microbial challenge; details: route intraperitoneal
Magnusiomyces capitatus [37] = assay: Antimicrobial activity against Blastoschizomyces capitatus IHEM 5666 isolate infected OF1 mouse blastoschizomycosis model assessed as kidney microbial count at 1 mg/kg/day, ip for 6 days administered 1 hr before microbial challenge; details: route intraperitoneal
Magnusiomyces capitatus [38] = assay: Antimicrobial activity against Blastoschizomyces capitatus IHEM 16105 isolate infected OF1 mouse blastoschizomycosis model assessed as liver microbial count per gram of tissue at 1 mg/kg/day, ip for 6 days administered 1 hr before microbial challenge; details: route intraperitoneal
Magnusiomyces capitatus [39] = assay: Antimicrobial activity against Blastoschizomyces capitatus IHEM 5666 isolate infected OF1 mouse blastoschizomycosis model assessed as spleen microbial count at 1 mg/kg/day, ip for 6 days administered 1 hr before microbial challenge; details: route intraperitoneal
Magnusiomyces capitatus [40] = assay: Antimicrobial activity against Blastoschizomyces capitatus IHEM 16105 isolate infected OF1 mouse blastoschizomycosis model assessed as kidney microbial count per gram of tissue at 1 mg/kg/day, ip for 6 days administered 1 hr before microbial challenge; details: route intraperitoneal
Magnusiomyces capitatus [41] = assay: Antimicrobial activity against Blastoschizomyces capitatus IHEM 5666 isolate infected OF1 mouse blastoschizomycosis model assessed as liver microbial count at 1 mg/kg/day, ip for 6 days administered 1 hr before microbial challenge; details: route intraperitoneal
Magnusiomyces capitatus [42] = assay: Antimicrobial activity against Blastoschizomyces capitatus IHEM 16105 isolate infected OF1 mouse blastoschizomycosis model assessed as mean survival time at 1 mg/kg/day, ip for 6 days administered 1 hr before microbial challenge; details: route intraperitoneal

SMILES: CCCCCOc1ccc(-c2cc(-c3ccc(C(=O)N[C@H]4C[C@@H](O)[C@@H](O)NC(=O)[C@@H]5[C@@H](O)[C@@H](C)CN5C(=O)[C@H]([C@H](O)CC(N)=O)NC(=O)[C@H]([C@H](O)[C@@H](O)c5ccc(O)c(OS(=O)(=O)O)c5)NC(=O)[C@@H]5C[C@@H](O)CN5C(=O)[C@H]([C@@H](C)O)NC4=O)cc3)no2)cc1 [MICAFUNGIN] (X1-[Orn(4R-OH,5R-OH)]T[Hyp][hTyr(3S-OH,4S-OH,3'-OSO3H)][Gln(3R-OH)][Pro(3S-OH,4S-Me)]; lactam 1-C)
- log10cfu (Magnusiomyces capitatus [1]): 7.69
- log10cfu (Magnusiomyces capitatus [2]): 5.26
- log10cfu (Magnusiomyces capitatus [3]): 7.52
- MIC (Magnusiomyces capitatus [4]): 64 µg/mL (≈ 50.4 µM)
- MST (Magnusiomyces capitatus [5]): 6.6 days
- log10cfu (Magnusiomyces capitatus [6]): 7.03
- log10cfu (Magnusiomyces capitatus [7]): 5.32
- log10cfu (Magnusiomyces capitatus [8]): 7.5
- MST (Magnusiomyces capitatus [9]): 7.59 days
- MIC (Magnusiomyces capitatus [10]): 64 µg/mL (≈ 50.4 µM)

SMILES: OC(Cn1cncn1)(Cn1cncn1)c1ccc(F)cc1F [FLUCONAZOLE]
- log10cfu (Magnusiomyces capitatus [11]): 2.05
- log10cfu (Magnusiomyces capitatus [12]): 2.49
- log10cfu (Magnusiomyces capitatus [13]): 1.59
- log10cfu (Magnusiomyces capitatus [14]): 3.72
- MIC (Magnusiomyces capitatus [4]): 16 µg/mL (≈ 52.2 µM)
- MST (Magnusiomyces capitatus [15]): 30 days
- log10cfu (Magnusiomyces capitatus [16]): 4.31
- log10cfu (Magnusiomyces capitatus [17]): 1.37
- MST (Magnusiomyces capitatus [18]): 25.7 days

SMILES: C[C@@H](c1ncncc1F)[C@](O)(Cn1cncn1)c1ccc(F)cc1F [VORICONAZOLE]
- log10cfu (Magnusiomyces capitatus [19]): 5.56
- log10cfu (Magnusiomyces capitatus [20]): 4.75
- MIC (Magnusiomyces capitatus [4]): 0.25 µg/mL (≈ 0.716 µM)
- log10cfu (Magnusiomyces capitatus [21]): 6.98
- log10cfu (Magnusiomyces capitatus [22]): 6.78
- log10cfu (Magnusiomyces capitatus [23]): 5.63
- log10cfu (Magnusiomyces capitatus [24]): 4.33
- MST (Magnusiomyces capitatus [25]): 17.1 days
- MST (Magnusiomyces capitatus [26]): 15.78 days
- MIC (Magnusiomyces capitatus [10]): 1 µg/mL (≈ 2.86 µM)

SMILES: Nc1nc(=O)[nH]cc1F [FLUCYTOSINE]
- log10cfu (Magnusiomyces capitatus [27]): 5.69
- log10cfu (Magnusiomyces capitatus [28]): 4.28
- log10cfu (Magnusiomyces capitatus [29]): 7.13
- MIC (Magnusiomyces capitatus [4]): 64 µg/mL (≈ 496 µM)
- log10cfu (Magnusiomyces capitatus [30]): 5.45
- log10cfu (Magnusiomyces capitatus [31]): 6.76
- MST (Magnusiomyces capitatus [32]): 7.6 days
- log10cfu (Magnusiomyces capitatus [33]): 7.29
- MIC (Magnusiomyces capitatus [10]): 0.25 µg/mL (≈ 1.94 µM)
- MST (Magnusiomyces capitatus [34]): 17.7 days

SMILES: C[C@@H]1[C@H](O)[C@@H](C)/C=C/C=C/C=C/C=C/C=C/C=C/C=C/[C@H](O[C@@H]2O[C@H](C)[C@@H](O)[C@H](N)[C@@H]2O)C[C@@H]2O[C@](O)(C[C@@H](O)C[C@@H](O)[C@H](O)CC[C@@H](O)C[C@@H](O)CC(=O)O[C@H]1C)C[C@H](O)[C@H]2C(=O)O [AMPHOTERICIN B]
- log10cfu (Magnusiomyces capitatus [35]): 6.02
- MIC (Magnusiomyces capitatus [4]): 1 µg/mL (≈ 1.08 µM)
- MST (Magnusiomyces capitatus [36]): 12.2 days
- log10cfu (Magnusiomyces capitatus [37]): 7.39
- log10cfu (Magnusiomyces capitatus [38]): 5.17
- log10cfu (Magnusiomyces capitatus [39]): 4.87
- log10cfu (Magnusiomyces capitatus [40]): 7
- log10cfu (Magnusiomyces capitatus [41]): 4.47
- MST (Magnusiomyces capitatus [42]): 12.3 days
